Measured values published in article PMC12113707, “Microwave Assisted Synthesis of Antioxidant Dihydro-Pyrazole Hybrids as Possible Lipoxygenase Inhibitors” (Molecules, 2025).

Assays:
[1] = Interaction with the stable free radical DPPH (reducing activity); conditions: 517 nm
[2] = Experimental lipophilicity RM by reverse phase thin layer chromatography (RP-TLC); assay type: physicochemical; conditions: methanol-water mobile phase
[3] = Inhibition of AAPH-induced linoleic acid peroxidation; conditions: 37 °C, 234 nm
[4] = target: T1, soybean lipoxygenase (SLOX-1) (Glycine max, UniProt P08170); assay: Inhibition of soybean lipoxygenase in vitro; assay type: biochemical; conditions: pH 9, sodium linoleate substrate; for inhibition at 100 µM: read-out: LOX% Inhibition, 100 μM (±SD)
T1 construct: 200 μL of plant-derived lipoxygenase solution (1:9 × 10^−4 w/v, in saline); purchased Sigma Chemical, Co; host or cells: soybean (plant-derived)
T1 sequence (P08170 1-839): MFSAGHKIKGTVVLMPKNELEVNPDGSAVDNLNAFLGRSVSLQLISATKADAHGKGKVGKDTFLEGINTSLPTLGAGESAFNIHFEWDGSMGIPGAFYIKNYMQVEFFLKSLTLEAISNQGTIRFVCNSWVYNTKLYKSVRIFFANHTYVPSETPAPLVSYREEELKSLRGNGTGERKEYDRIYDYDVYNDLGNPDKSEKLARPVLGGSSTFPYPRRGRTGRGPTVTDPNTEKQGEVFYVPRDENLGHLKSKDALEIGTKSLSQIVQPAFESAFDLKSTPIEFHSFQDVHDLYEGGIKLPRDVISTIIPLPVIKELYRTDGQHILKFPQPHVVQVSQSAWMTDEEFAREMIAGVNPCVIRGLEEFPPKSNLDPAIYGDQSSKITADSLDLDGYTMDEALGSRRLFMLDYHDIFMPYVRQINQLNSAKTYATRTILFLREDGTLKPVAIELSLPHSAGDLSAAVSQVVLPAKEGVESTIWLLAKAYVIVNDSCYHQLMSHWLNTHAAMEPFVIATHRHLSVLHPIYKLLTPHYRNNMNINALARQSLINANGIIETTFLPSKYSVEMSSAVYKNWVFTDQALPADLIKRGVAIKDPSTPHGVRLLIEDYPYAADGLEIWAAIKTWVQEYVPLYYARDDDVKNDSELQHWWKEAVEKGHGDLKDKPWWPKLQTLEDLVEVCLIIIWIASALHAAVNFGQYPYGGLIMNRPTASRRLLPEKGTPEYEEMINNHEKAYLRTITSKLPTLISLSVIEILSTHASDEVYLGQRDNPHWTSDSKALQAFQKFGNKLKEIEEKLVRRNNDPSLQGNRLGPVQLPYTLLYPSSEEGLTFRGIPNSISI
How it was run: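 SLOX-1 in Tris-HCl pH 9.0 with sodium linoleate (3 mM solution, stock level) as substrate and DMSO vehicle control. Conversion to 13-hydroperoxide followed by absorbance at 234 nm.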

| Structure (SMILES) | RA%, 100 μM, 20 min (±SD) [1] | RM ± SD [2] | AAPH% Inhibition, 100 μM (±SD) [3] | inhibition at 100 µM [4] | RA%, 100 μM, 60 min (±SD) [1] | IC50 ([4]; read-out: LOX IC50 (μM) (±SD)) |
| --- | --- | --- | --- | --- | --- | --- |
| CC(=O)N1N=C(/C=C/c2ccccc2)CC1c1ccccc1 (stereo not shown) [Compound 6a, (E)-5-phenyl-3-styryl-4,5-dihydro-1-H-pyrazol-1-ethan-1-one] | 11 ± 0.6% | 0.17 ± 0.014 | 22 ± 1% | 24 ± 0.8% | – | – |
| CC(=O)N1N=C(/C=C/c2ccc(Cl)cc2)CC1c1ccc(Cl)cc1 (stereo not shown) [Compound 6d, (E)-5-(4-chlorophenyl)-3-(4-chlorostyryl)-4,5-dihydro-1-H-pyrazol-1-ethan-1-one] | – | 0.65 ± 0.048 | 67 ± 0.4% | 42 ± 2.7% | 8 ± 0.7% | – |
| CC(=O)N1N=C(/C=C/c2ccc(N(C)C)cc2)CC1c1ccc(N(C)C)cc1 (stereo not shown) [Compound 6e, (E)-5-(4-dimethylaminophenyl)-3-(4-dimethylaminostyryl)-4,5-dihydro-1-H-pyrazol-1-ethan-1-one] | 7 ± 0.5% | 0.47 ± 0.036 | 56 ± 0.3% | – | 12 ± 1% | 40 µM |
